Reference: US4539202A, “Derivatives of clavulanic acid, a process for their preparation and their use” (Beecham Group p.l.c., priority 1983, dated 1985)
Converted amounts (≈) assume the structure as drawn. Read-outs that look alike come from different tables or passages of the source.

Experiments:
K aerogenes E70 [1] = assay: Antibacterial activity, standard MIC test; type: cell-based; details: Klebsiella aerogenes, compound alone
From the text: (§1) Using conventional methods the following results were obtained in a standard MIC test: […]

St aureus Russell [2] = assay: Antibacterial activity, standard MIC test; type: cell-based; details: Staphylococcus aureus, compound alone
From the text: as §1

E coli JT39 [3] = assay: Antibacterial activity, standard MIC test; type: cell-based, Escherichia coli; details: compound alone
From the text: as §1

St aureus Russell [4] = assay: Synergistic activity with amoxycillin, standard MIC test; type: cell-based, Staphylococcus aureus; details: amoxycillin alone
From the text: (§2) Synergistic Activity with Amoxycillin
as §1

K aerogenes E70 [5] = assay: as above; type: cell-based, Klebsiella aerogenes; details: amoxycillin alone
From the text: as §2, §1

E coli JT39 [6] = assay: as above; type: cell-based, Escherichia coli; details: amoxycillin alone
From the text: as §2, §1

[7] = Escherichia coli, read-out: MIC

SMILES	MIC (K aerogenes E70 [1]) [µg/mL]	MIC (St aureus Russell [2]) [µg/mL]	MIC (E coli JT39 [3]; [7]) [µg/mL]	MIC (E coli JT39 [3]) [µg/mL]	MIC amoxycillin (St aureus Russell [4]) [µg/mL]	MIC amoxycillin (K aerogenes E70 [5]) [µg/mL]	MIC amoxycillin (E coli JT39 [6]) [µg/mL]
O=C(O)CCNC/C=C1\O[C@@H]2CC(=O)N2[C@H]1C(=O)O [1(b), 9-N-(2'-Carboxyethyl)aminodeoxyclavulanic acid]	> 500	31 (≈ 115 µM)	15 (≈ 55.5 µM)				
O=C(O)CCCCNC/C=C1\O[C@@H]2CC(=O)N2[C@H]1C(=O)O [3(c), 9-N-(4'-Carboxybutyl)aminodeoxyclavulanic acid]	250 (≈ 838 µM)	31 (≈ 104 µM)	62.5 (≈ 210 µM)				
O=C(O)c1ccc(CNC/C=C2\O[C@@H]3CC(=O)N3[C@H]2C(=O)O)cc1 [4(c), 9-N-(4'-Carboxybenzyl)aminodeoxyclavulanic acid]	250 (≈ 752 µM)	4 (≈ 12 µM)	31 (≈ 93.3 µM)				
COC(=O)CCNC/C=C1\O[C@@H]2CC(=O)N2[C@H]1C(=O)O [6(b), 9-N-(2'-Methoxycarbonylethyl)aminodeoxyclavulanic acid]	250 (≈ 879 µM)	8 (≈ 28.1 µM)	31 (≈ 109 µM)				
O=C(O)CCCCCNC/C=C1\O[C@@H]2CC(=O)N2[C@H]1C(=O)O [9(b), 9-N-(5'-Carboxypentyl)aminodeoxyclavulanic acid]	250 (≈ 800 µM)	31 (≈ 99.3 µM)	31 (≈ 99.3 µM)				
O=C(O)CCCNC/C=C1\O[C@@H]2CC(=O)N2[C@H]1C(=O)O [10(b), 9-N-(3'-Carboxypropyl)aminodeoxyclavulanic acid]	250 (≈ 879 µM)	62.5 (≈ 220 µM)	31 (≈ 109 µM)				
O=C(O)CCCCCCCCCCNC/C=C1\O[C@@H]2CC(=O)N2[C@H]1C(=O)O [11(b), 9-N-(10'-Carboxydecyl)aminodeoxyclavulanic acid]	> 500	8 (≈ 20.9 µM)					
O=C(O)[C@H]1/C(=C/CNC[C@H]2CC[C@H](C(=O)O)CC2)O[C@@H]2CC(=O)N21 [12(d), 9-N-(trans-4'-Carboxycyclohexylmethyl)aminodeoxyclavulanic acid]	250 (≈ 739 µM)	16 (≈ 47.3 µM)	31 (≈ 91.6 µM)				
N[C@@H](CCCCNC/C=C1\O[C@@H]2CC(=O)N2[C@H]1C(=O)O)C(=O)O [14(d)]	> 500	31 (≈ 94.7 µM)		125 (≈ 382 µM)			
CC1(C)S[C@@H]2[C@H](NC(=O)[C@H](N)c3ccc(O)cc3)C(=O)N2[C@H]1C(=O)O [Amoxycillin]					500	500	2000
